Measurements from patent US20230149355A1, “COMPOSITIONS AND METHODS FOR MODULATING TRP CHANNEL ACTIVITY” (priority 2020, published 2023).

Tests used:
mouse TRPA1 = target: T1, mouse TRPA1 (Mus musculus, UniProt Q8BLA8); assay: Ca2+ influx (Calcium 6 fluorescence) in mouse Trpa1-expressing HEK-293T cells; format: cell-based
T1 construct: expressed in transfected cells; host or cells: HEK-293T
Protocol: HEK-293T cells were cultured in DMEM (Thermofisher Scientific, Waltham, Mass.) and supplemented with 10% fetal bovine serum (FBS) (Thermofisher Scientific), penicillin (100 units/mL) and streptomycin (0.1 mg/mL). Cells were plated on 100 mm tissue culture plates coated with poly-D-lysine (Sigma Aldrich, Saint Louis, Mo.) and grown to ˜60% confluence. The cells were transiently transfected for 16-24 hours with either human or mouse orthologs of TRPA1 using Fugene 6 transfection reagents and Opti-MEM (Thermofisher Scientific) according to the manufacturer's protocol. Subsequently, cells were trypsinized, re-suspended and re-plated onto poly-D-lysine coated 96-well plates (Krystal black walled plates, Genesee Scientific) at 5×10^5 cells/mL (100 μL/well) and allowed to grow for another 16-20 hrs prior to the experiments. Cells were maintained as monolayers in a 5% CO2 incubator at 37° C.
Measurements of changes in intracellular Ca^2+ concentrations ([Ca^2+]i) were performed as described previously (Caceres et al., 2017). In brief, cells in 96-well plates were loaded with Calcium 6, a no-wash fluorescent indicator, for 1.5 hrs (Molecular Devices, San Jose, Calif.) and then transferred to a FlexStation III benchtop scanning fluorometer chamber (Molecular Devices). Fluorescence measurements in the FlexStation were performed at 37° C. (Ex:485 nm, Em: 525 nm at every 1.8 s). After recording baseline fluorescence, agonists (indole, IAld, cinnamaldehyde) were added and fluorescence was monitored for a total of 60 s. […] The change in fluorescence was measured as Fmax-F0, where Fmax is the maximum fluorescence and F0 is the baseline fluorescence measured in each well.

zebrafish EECs (Trpa1) = assay: In vivo EEC calcium, Tg(neurod1:Gcamp6f) zebrafish; settings: trpa1b-dependent
Protocol: To record in vivo EEC activity using the Tg(neurod1:Gcamp6f) system, a published protocol with slight modification (Ye et al., 2019) was used. In brief, unanesthetized zebrafish larvae were gently mounted in 3% methylcellulose. Excess water was removed and zebrafish larvae were gently positioned with right side up. Zebrafish were then moved onto an upright Leica M205 FA fluorescence stereomicroscope equipped with a Leica DFC 365FX camera. The zebrafish larvae were allowed to recover for 2 mins before 100 μL of test agent was pipetted directly in front of the mouth region. Images were then recorded every 10 seconds. The data shown in FIG. 2O-R, depicting the EEC responses to E. tarda stimulation, were obtained by mounting unanesthetized zebrafish larvae in 1% low melting agarose. A window (5×5 mm) was cut to expose the head region of the zebrafish. 10 μL of E. tarda culture [˜10^9 Colony Forming Unit (CFU)] were delivered at the zebrafish mouth area. Images were recorded every 10 secs for 20 mins. Image processing and analysis were performed using FIJI software. Time-lapse fluorescence images were first aligned to correct for experimental drift using the plugin “align slices in stack.” Normalized correlation coefficient matching and bilinear interpolation methods for subpixel translation were used for aligning slices (Tseng et al., 2012). The plugin “rolling ball background subtraction” with the rolling ball radius=10 pixels was used to remove the large spatial variation of background intensities. The Gcamp6f fluorescence intensity in the intestinal region was then calculated for each time point. The ratio of maximum fluorescence (Fmax) and the initial fluorescence (F0) was used to measure EEC calcium responses.
For EEC Trpa1 activation using the Optovin platform, zebrafish larvae were treated with 10 μM Optovin overnight. Following Optovin treatment, unanesthetized zebrafish were mounted in 1% LMA and imaged under a 780 upright Zeiss confocal microscope using 20× water objective lenses. For all the experiments, the mid-intestine region was imaged (FIG. 10D). The intestinal epithelium was selected as the region of interest (ROI) (FIG. 10A). Serial images were obtained at 1 s/frame. A 405 nm pulse of light was applied to the ROI at 1 pulse/10 s. For some experiments (FIG. 7D-F, FIG. 10B-G), the images were obtained at 10 s/frame. When measuring Optovin effects on intestinal motility in ret−/−, sox10−/− or tph1b−/− zebrafish larvae, embryos were collected from heterozygous zebrafish. ret−/− zebrafish were identified by lack of ENS and deflated swim bladder (Knight et al., 2011), sox10−/− zebrafish were identified by lack of pigment (Rolig et al., 2017), and tph1b−/− zebrafish were identified by PCR-based genotyping (Tornini et al., 2017).
To determine whether Optovin-UV or ChR2 was sufficient to activate EECs, Tg(neurod1:Gcamp6f) zebrafish were used. […] The Gcamp6f signal was recorded with 488 nm laser intensity less than 0.5. The zebrafish intestinal motility is quantified through recorded image series of zebrafish intestine using the method similar as previously described (Ganz et al., 2018). […] When calculating the mean velocity, only the mean velocity magnitude was calculated, which therefore doesn't account for the movement direction. The MTrackJ FIJI plugin was used to quantify the mean velocity magnitude (Meijering et al., 2012).

human ileum = assay: Amperometric measurement of 5-HT secretion, human small intestine; settings: 10 mM Indole
Excerpt: These experiments using C57BL/6J mice were approved by the Flinders University Animal Welfare Committee (number 965-19) and human ileum tissue was collected from resected small and large intestine from patients that gave written informed consent under the approval of the Southern Adelaide Clinical Human Research Ethics Committee (number 50.07) as previous (Sun et al., 2019a). Mice were euthanized at 8 to 12 weeks by isoflurane overdose followed by cervical dislocation. The duodenum was removed and placed in Krebs solution oxygenated with 95% O2, 5% CO2. A midline incision was made along the duodenum to create a flat sheet, the section was pinned with the mucosal side up in an organ bath lined with Sylgard and containing oxygenated Krebs solution. Serotonin release was measured using amperometry. A carbon-fibre electrode (5-μm diameter, ProCFE; Dagan Corporation, Minneapolis, Minn.), was lowered above the mucosa and 400 mV potential was applied to the electrode causing oxidation of serotonin (Zelkas et al., 2015). […] The change in amplitude due to serotonin oxidation was recorded using an EPC-10 amplifier and Pulse software (HEKA Electronic, Lambrecht/Pfalz, Germany), and samples at 10 kHz and low-pass filtered at 1 kHz. Data was assessed as peak current during each treatment. Data was analyzed comparing all groups using one-way ANOVA with Tukey's post-hoc test. […]

intestinal motility = assay: Zebrafish intestinal motility (PIV-Lab velocity analysis); format: in vivo; settings: indole stimulation
Excerpt: The zebrafish intestinal motility is quantified through recorded image series of zebrafish intestine using the method similar as previously described (Ganz et al., 2018). Intestinal p velocity and v velocity were used to estimate intestinal motility in zebrafish as previously described using the PIV-Lab MATLAB app (Ganz et al., 2018). A positive value of the μ velocity indicates an anterograde intestinal movement and a negative value of the μ velocity indicates a retrograde intestinal movement. The time-course p velocity number is plotted as heatmaps. When calculating the mean velocity, only the mean velocity magnitude was calculated, which therefore doesn't account for the movement direction. The MTrackJ FIJI plugin was used to quantify the mean velocity magnitude (Meijering et al., 2012).

T1 sequence (Q8BLA8 whole entry): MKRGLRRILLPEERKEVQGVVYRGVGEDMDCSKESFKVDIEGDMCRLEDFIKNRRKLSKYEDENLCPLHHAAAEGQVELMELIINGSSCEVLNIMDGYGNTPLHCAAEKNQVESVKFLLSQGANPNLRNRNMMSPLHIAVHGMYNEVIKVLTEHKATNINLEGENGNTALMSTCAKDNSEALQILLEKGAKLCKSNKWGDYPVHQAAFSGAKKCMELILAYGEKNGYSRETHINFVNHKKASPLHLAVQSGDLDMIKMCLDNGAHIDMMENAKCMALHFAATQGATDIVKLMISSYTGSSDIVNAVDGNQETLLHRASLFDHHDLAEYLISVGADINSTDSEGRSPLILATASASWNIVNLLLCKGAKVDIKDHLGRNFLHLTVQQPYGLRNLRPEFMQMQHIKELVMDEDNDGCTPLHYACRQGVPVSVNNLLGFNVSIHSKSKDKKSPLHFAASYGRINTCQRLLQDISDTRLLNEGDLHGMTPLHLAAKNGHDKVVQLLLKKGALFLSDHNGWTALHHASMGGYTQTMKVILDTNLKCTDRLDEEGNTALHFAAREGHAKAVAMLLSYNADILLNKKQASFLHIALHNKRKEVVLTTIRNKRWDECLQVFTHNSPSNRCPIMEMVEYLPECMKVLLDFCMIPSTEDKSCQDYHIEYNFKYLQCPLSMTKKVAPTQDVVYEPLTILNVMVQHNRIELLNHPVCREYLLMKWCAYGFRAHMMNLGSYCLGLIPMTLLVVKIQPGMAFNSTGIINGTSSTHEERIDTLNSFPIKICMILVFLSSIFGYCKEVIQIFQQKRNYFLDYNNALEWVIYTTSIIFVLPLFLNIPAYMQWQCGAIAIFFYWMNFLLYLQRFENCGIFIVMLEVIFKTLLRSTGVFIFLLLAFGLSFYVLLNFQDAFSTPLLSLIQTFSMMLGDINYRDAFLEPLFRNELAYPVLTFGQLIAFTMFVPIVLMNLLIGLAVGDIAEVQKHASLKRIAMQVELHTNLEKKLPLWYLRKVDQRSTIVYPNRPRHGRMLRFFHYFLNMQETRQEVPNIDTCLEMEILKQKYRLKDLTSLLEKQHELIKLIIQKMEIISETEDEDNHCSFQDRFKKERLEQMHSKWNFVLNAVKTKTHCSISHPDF

For `c1ccc2[nH]ccc2c1` [Indole], the EC50 (mouse TRPA1) was 131 µM, the “Activation of mouse Trpa1” value (mouse TRPA1; compared with human TRPA1) was “activated mouse Trpa1, but in a less potent manner” and the “Zebrafish EEC activation (Gcamp6f fluorescence)” value (zebrafish EECs (Trpa1)) was “strongly activated”. For the same compound, the “5-HT secretion in human ileum” value (human ileum) was “significant increase” and the “Intestinal motility on stimulation of zebrafish larvae” value (intestinal motility) was “increases intestinal motility”.
